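Step 1: Grow cells in 96-well plates. Step 2: Expose to compound for 48 hours at 5 concentrations. Step 3: Interpolate endpoints linearly; if unreached, use highest concentration. GI50: concentration for 50% inhibition of growth. The concentration for full growth arrest is given as TGI.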
Columns and labels:
Experiment in all cases: inhibition of tumour cell growth, NCI panel, 48 h
COLO 205 colon = tested on: COLO 205 colon
EKVX NSCLC = tested on: EKVX NSCLC
HCT-15 colon = tested on: HCT-15 colon
HL-60(TB) leukemia = tested on: HL-60(TB) leukemia
SF-268 CNS = tested on: SF-268 CNS
SF-539 CNS = tested on: SF-539 CNS
SK-MEL-28 melanoma = tested on: SK-MEL-28 melanoma
SK-MEL-5 melanoma = tested on: SK-MEL-5 melanoma
SN12C renal = tested on: SN12C renal
MDA-MB-435 = tested on: MDA-MB-435

Row | Structure (SMILES) | TGI (COLO 205 colon) [µM] | TGI (EKVX NSCLC) [µM] | TGI (HCT-15 colon) [µM] | TGI (HL-60(TB) leukemia) [µM] | TGI (SF-268 CNS) [µM] | TGI (SF-539 CNS) [µM] | TGI (SK-MEL-28 melanoma) [µM] | TGI (SK-MEL-5 melanoma) [µM] | TGI (SN12C renal) [µM] | GI50 (COLO 205 colon) [µM] | GI50 (EKVX NSCLC) [µM] | GI50 (HCT-15 colon) [µM] | GI50 (MDA-MB-435) [µM] | TGI (MDA-MB-435) [µM] | GI50 (SF-268 CNS) [µM] | GI50 (SF-539 CNS) [µM] | GI50 (SK-MEL-28 melanoma) [µM] | GI50 (SK-MEL-5 melanoma) [µM] | GI50 (SN12C renal) [µM] | GI50 (HL-60(TB) leukemia) [µM]
1 | O=c1c2c(-c3ccccc3)c3ccccc3nc2cnn1-c1ccccc1 | > 100 | > 100 | > 100 | > 100 | > 100 | > 100 | > 100 | > 100 | > 100 | – | – | – | – | – | – | – | – | – | – | –
2 | C=C1C(=O)O[C@H]2[C@H]1CC/C(COC(=O)N[C@H]1C[C@H](O[C@H]3C[C@](O)(C(=O)CO)Cc4c(O)c5c(c(O)c43)C(=O)c3c(OC)cccc3C5=O)O[C@@H](C)[C@H]1O)=C\CC[C@@]1(C)O[C@@H]21 | 6.98 | > 50 | > 50 | – | 24.6 | 8.43 | 4.67 | 18.1 | 14.4 | 1.75 | 23.3 | > 50 | 6.31 | 22.2 | 6.72 | 2.37 | 1.51 | 8.1 | 5.07 | –
3 | CCOc1cccc2c1N[S@@](=O)S2 | – | > 100 | > 100 | > 100 | > 100 | > 100 | > 100 | – | > 100 | – | – | – | – | – | – | – | – | – | – | –
4 | CCCC1(CN2c3ccccc3Sc3ccc(Cl)cc32)CCN(CC)C1 (stereo not drawn) | 3.3 | 3.55 | 3.84 | – | 3.88 | 3.61 | 3.48 | 3 | 8.74 | 1.64 | 1.77 | 1.88 | 1.79 | 3.47 | 1.86 | 1.85 | 1.92 | 1.62 | 3.03 | –
5 | COc1cc2c(c3c1c(=O)c1ccccc1n3C)C=CC(C)(C)O2 | > 100 | – | > 100 | > 100 | > 100 | > 100 | > 100 | > 100 | > 100 | – | – | – | – | – | – | – | – | – | – | –
6 | CC(=O)OC(C(=O)[O][Sn]([CH3])([CH3])[CH3])c1ccccc1 (stereo not drawn) | > 100 | > 100 | > 100 | > 100 | > 100 | > 100 | > 100 | > 100 | > 100 | > 100 | > 100 | > 100 | – | – | > 100 | > 100 | > 100 | > 100 | > 100 | > 100
7 | COc1cc(C2=NN(C(C)=O)C(c3cc(OC)c(OC)c(OC)c3)C2)ccc1O (stereo not drawn) | 1.05 | > 100 | > 100 | 0.514 | > 100 | 1.54 | > 100 | 2.19 | > 100 | 0.274 | 1.13 | 0.392 | – | – | 0.539 | 0.271 | 0.478 | 0.132 | 0.882 | 0.182
8 | C#CCN(N=O)C(=O)ON1C(=O)CCC1=O | > 100 | > 100 | > 100 | > 100 | > 100 | > 100 | > 100 | > 100 | > 100 | – | – | – | – | – | – | – | – | – | – | –
9 | O=C1CCC2(c3ccccc3)Nc3ccccc3N12 (stereo not drawn) | > 100 | > 100 | > 100 | > 100 | > 100 | > 100 | > 100 | > 100 | > 100 | – | – | – | – | – | – | – | – | – | – | –
10 | CN/N=C(/c1nc2ccc([N+](=O)[O-])cc2[nH]c1=O)C(O)c1ccc(C(O)/C(=N\NC)c2nc3ccc([N+](=O)[O-])cc3[nH]c2=O)cc1 (stereo not drawn) | > 100 | > 100 | > 100 | 53.5 | > 100 | > 100 | > 100 | > 100 | – | – | – | – | – | – | – | – | – | – | – | –
11 | Cn1cc(-c2cc(-c3cn(C)c4ccc(Cl)cc34)[nH]n2)c2cc(Cl)ccc21 | 5.35 | 15 | 15.1 | 18.1 | 44.4 | 3.46 | 79.6 | 3.6 | – | 2.22 | 3.15 | 3.01 | – | – | 5.29 | 1.81 | 4.8 | 1.79 | – | 4.45
12 | CCOc1ccc(N=C(NC(=O)c2ccccc2)SC)cc1 | > 100 | > 100 | > 100 | > 100 | > 100 | > 100 | > 100 | > 100 | > 100 | – | – | – | – | – | – | – | – | – | – | –
13 | CO[C@H]1/C=C/O[C@@]2(C)Oc3c(C)c(O)c4c(O)c(c(/C=N/N5CCN(C)CC5)c(O)c4c3C2=O)NC(=O)/C(C)=C\C=C\[C@H](C)[C@H](O)[C@@H](C)[C@@H](O)[C@@H](C)[C@H](OC(C)=O)[C@@H]1C | > 100 | > 100 | – | – | – | – | > 100 | > 100 | > 100 | – | – | – | – | > 100 | – | – | – | – | – | –
14 | N=c1c2ccccc2sc2nc3ccccc3n12 | > 100 | > 100 | – | > 100 | > 100 | > 100 | > 100 | > 100 | > 100 | – | – | – | – | – | – | – | – | – | – | –
15 | COc1ccc(/C=C2\CCC(CCN(C)C)(C3=CCCC3)C2=O)cc1 (stereo not drawn) | 25.9 | 39.9 | 51.4 | 36.6 | 40 | 30.8 | 35.1 | 30.3 | 40.5 | – | – | – | – | – | – | – | – | – | – | –
16 | COC(=O)c1cc(=O)nc2cc3cccccc3n12 | > 100 | > 100 | > 100 | > 100 | – | > 100 | > 100 | > 100 | > 100 | – | – | – | – | – | – | – | – | – | – | –
17 | C1=Cc2nc1c(-c1ccccc1)c1ccc([nH]1)c(-c1ccccc1)c1nc(c(-c3ccccc3)c3ccc([nH]3)c2-c2ccccc2)C=C1 | > 100 | > 100 | > 100 | > 100 | > 100 | > 100 | > 100 | > 100 | > 100 | – | – | – | – | – | – | – | – | – | – | –
18 | CN(C)c1ccc(/C=C(\NC(=O)c2ccccc2)c2nc3ccc4c(c3[nH]2)C(=O)c2ccccc2C4=O)cc1 | > 100 | > 100 | > 100 | – | > 100 | > 100 | > 100 | > 100 | > 100 | – | – | – | – | – | – | – | – | – | – | –
19 | CCCCCCC(O)CC[C@H]1CCC[C@@H](C)N1 (stereo partly drawn) | > 31.6 | > 100 | > 31.6 | > 100 | > 31.6 | > 100 | > 31.6 | > 100 | > 100 | – | – | – | – | – | – | – | – | – | – | –
20 | COC/N=C(\NC#N)NCOC | > 85.1 | > 100 | > 59.4 | > 100 | > 100 | > 100 | > 100 | > 100 | > 100 | – | – | – | – | – | – | – | – | – | – | –
